We go through 23 compounds from US20060069123A1, “Substituted dipiperidine CCR2 antagonists” (priority 2004, published 2006).

The target of one assay is T1, CCR2 (Homo sapiens, UniProt P41597).
T1 sequence (P41597 1-360 isoform P41597-2): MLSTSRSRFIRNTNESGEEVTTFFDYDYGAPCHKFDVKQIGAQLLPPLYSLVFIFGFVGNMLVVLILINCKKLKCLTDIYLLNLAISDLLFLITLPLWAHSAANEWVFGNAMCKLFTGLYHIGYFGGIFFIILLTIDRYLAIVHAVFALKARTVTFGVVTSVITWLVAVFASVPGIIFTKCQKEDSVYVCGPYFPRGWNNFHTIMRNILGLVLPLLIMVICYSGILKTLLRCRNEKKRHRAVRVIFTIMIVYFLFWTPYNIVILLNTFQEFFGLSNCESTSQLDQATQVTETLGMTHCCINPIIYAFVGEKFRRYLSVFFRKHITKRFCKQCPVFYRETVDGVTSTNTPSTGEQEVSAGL

In assay [1] the test system is THP-1 cells. The assay can be described thus: MCP-1 Induced Chemotaxis in THP-1 Cells. The format is cell-based. The settings on record: Homo sapiens, THP-1 cells, MCP-1 0.01 μg/mL, 3 hours, read-out: Inhibition of MCP-1 Induced Chemotaxis IC50.
The test system of assay [2] is THP-1 cells. The settings on record: Homo sapiens.
The mark [3] stands for this setting: THP-1, read-out: Inhibition of MCP-1 Induced Calcium Ion Influx IC50.

Read-outs that look alike come from different tables or passages of the source.

Take `CS(=O)(=O)N(CC(C1CCN(C(=O)/C=C/c2cc(F)cc(F)c2)CC1)N1CCC(c2c[nH]c3ccccc23)CC1)S(C)(=O)=O` (stereo not drawn) [Cpd 134, N-{2-{1-[(2E)-3-(3,5-difluoro-phenyl)-acryloyl]-piperidin-4-yl}-2-[4-(1H-indol-3-yl)-piperidin-1-yl]-ethyl}-N-methanesulfonyl-methanesulfonamide]: the IC50 amounted to 0.3 µM against CCR2, 0.09 µM with THP-1 cells [1] and 0.01 µM in the assay with THP-1 cells [2] (setting [3]).

In the case of `O=C(/C=C/c1cc(F)cc(F)c1)N1CCC(C(CO)N2CCC(c3c[nH]c4ncccc34)CC2)CC1` (stereo not drawn) [Cpd 202, (2E)-3-(3,5-difluoro-phenyl)-1-(4-{2-hydroxy-1-[4-(1H-pyrrolo[2,3-b]pyridin-3-yl)-piperidin-1-yl]-ethyl}-piperidin-1-yl)-propenone], the IC50 on CCR2 is 0.0193 µM; in the assay on THP-1 cells [1], 0.015 µM; in the assay on THP-1 cells [2] (setting [3]), 0.008 µM.

As to `O=C(/C=C/c1ccc(F)c(F)c1)N1CCC(C(CO)N2CCC(c3c[nH]c4ccccc34)CC2)CC1` (stereo not drawn) [Cpd 113, (2E)-3-(3,4-difluoro-phenyl)-1-(4-{2-hydroxy-1-[4-(1H-indol-3-yl)-piperidin-1-yl]-ethyl}-piperidin-1-yl)-propenone], the concentration for half-maximal inhibition (IC50) came to 0.006 µM at CCR2 (Inhibition of MCP-1 Binding IC50, 125I labeled MCP-1 binding to CCR2, THP-1 cells); 0.095 µM in the assay with THP-1 cells [1] (THP-1, 3 h); 0.001 µM in the assay on THP-1 cells [2] (THP-1, read-out: Inhibition of MCP-1 Induced Calcium Ion Influx IC50, THP-1 cells, 0.2 μM MCP-1, FLIPR).

On to `COc1ccc2[nH]cc(C3CCN(C(CO)C4CCN(C(=O)/C=C/c5cc(F)cc(F)c5)CC4)CC3)c2c1` (stereo not drawn) [Cpd 164, (2E)-3-(3,5-difluoro-phenyl)-1-(4-{2-hydroxy-1-[4-(5-methoxy-1H-indol-3-yl)-piperidin-1-yl]-ethyl}-piperidin-1-yl)-propenone], for which the IC50 at CCR2 is 0.01 µM; with THP-1 cells [1], 0.04 µM; with THP-1 cells [2] (setting [3]) it was 0.009 µM.

Regarding `Cc1ccc(NC(=O)N2CCC(C(C(=O)O)N3CCC(c4c[nH]c5ccccc45)CC3)CC2)cc1C(F)(F)F` (stereo not drawn) [Cpd 106, [4-(1H-indol-3-yl)-piperidin-1-yl]-[1-(4-methyl-3-trifluoromethyl-phenylcarbamoyl)-piperidin-4-yl]-acetic acid], the IC50 was 0.02 µM against CCR2, 0.21 µM with THP-1 cells [1] and 0.11 µM with THP-1 cells [2] (setting [3]).

On to `COc1ccc(C2CCN(C(CO)C3CCN(C(=O)/C=C/c4cc(F)cc(F)c4)CC3)CC2)cc1` (stereo not drawn) [Cpd 137, (2E)-3-(3,5-difluoro-phenyl)-1-(4-{2-hydroxy-1-[4-(4-methoxy-phenyl)-piperidin-1-yl]-ethyl}-piperidin-1-yl)-propenone], for which the figures for the IC50 at CCR2, in the assay on THP-1 cells [1] and in the assay with THP-1 cells [2] (setting [3]) were 0.03 µM, 0.08 µM and 0.21 µM, respectively.

As to `O=C(Nc1cc(F)cc(F)c1)N1CCC(C(CO)N2CCC(c3c[nH]c4ccccc34)CC2)CC1` (stereo not drawn) [Cpd 129, 4-{2-hydroxy-1-[4-(1H-indol-3-yl)-piperidin-1-yl]-ethyl}-piperidine-1-carboxylic acid (3,5-difluoro-phenyl)-amide], the 50% inhibitory concentration (IC50) against CCR2 stood at 0.04 µM; in the assay with THP-1 cells [1], 0.08 µM; in the assay with THP-1 cells [2] (setting [3]), 0.02 µM.

As for `O=C(/C=C/c1ccc([N+](=O)[O-])cc1)OCC(C1CCN(C(=O)/C=C/c2ccc([N+](=O)[O-])cc2)CC1)N1CCC(c2c[nH]c3ccccc23)CC1` (stereo not drawn) [Cpd 251, (2E)-3-(4-nitro-phenyl)-acrylic acid 2-[4-(1H-indol-3-yl)-piperidin-1-yl]-2-{1-[(2E)-3-(4-nitro-phenyl)-acryloyl]-piperidin-4-yl}-ethyl ester], the 50% inhibitory concentration (IC50) against CCR2 was determined as 0.39 µM; in the assay on THP-1 cells [1], 0.17 µM; in the assay with THP-1 cells [2] (setting [3]) it was 0.56 µM.

`O=C(/C=C/c1ccc(F)cc1)N1CCC(C(CO)N2CCC(c3c[nH]c4ccc(F)cc34)CC2)CC1` (stereo not drawn) [Cpd 169, (2E)-1-(4-{1-[4-(5-fluoro-1H-indol-3-yl)-piperidin-1-yl]-2-hydroxy-ethyl}-piperidin-1-yl)-3-(4-fluoro-phenyl)-propenone]: the IC50 was 0.057 µM against CCR2, 0.055 µM in the assay on THP-1 cells [1] and 0.17 µM with THP-1 cells [2] (setting [3]).

Turning to `COc1ccc(C2CCN(C(CO)C3CCN(C(=O)/C=C/c4ccc(Cl)c(Cl)c4)CC3)CC2)cc1` (stereo not drawn) [Cpd 139, (2E)-3-(3,4-dichloro-phenyl)-1-(4-{2-hydroxy-1-[4-(4-methoxy-phenyl)-piperidin-1-yl]-ethyl}-piperidin-1-yl)-propenone], the figures for the IC50 against CCR2, in the assay with THP-1 cells [1] and in the assay on THP-1 cells [2] (setting [3]) were 0.02 µM, 0.05 µM and 0.04 µM, respectively.

In the case of `CC(=O)NCC(C1CCN(C(=O)Nc2ccc(Cl)c(Cl)c2)CC1)N1CCC(c2c[nH]c3ccccc23)CC1` (stereo not drawn) [Cpd 217], the concentration for half-maximal inhibition (IC50) came to 0.21 µM at CCR2, 0.62 µM with THP-1 cells [1] and 2 µM with THP-1 cells [2] (setting [3]).

As for `CC(=O)OCC(C1CCN(C(=O)/C=C/c2cc(F)cc(F)c2)CC1)N1CCC(c2c[nH]c3ccccc23)CC1` (stereo not drawn) [Cpd 235, acetic acid 2-{1-[(2E)-3-(3,5-difluoro-phenyl)-acryloyl]-piperidin-4-yl}-2-[4-(1H-indol-3-yl)-piperidin-1-yl]-ethyl ester], the IC50 on CCR2 amounted to 0.03 µM; in the assay on THP-1 cells [1], 0.008 µM; in the assay with THP-1 cells [2] (setting [3]), 0.02 µM.

On to `O=C(Nc1ccc(Cl)c(Cl)c1)N1CCC(C(CO)N2CCC(c3c[nH]c4ccccc34)CC2)CC1` (stereo not drawn) [Cpd 123, 4-{2-hydroxy-1-[4-(1H-indol-3-yl)-piperidin-1-yl]-ethyl}-piperidine-1-carboxylic acid (3,4-dichloro-phenyl)-amide], for which the half-maximal inhibitory concentration (IC50) against CCR2 came out at 0.009 µM; in the assay on THP-1 cells [1], 0.005 µM; in the assay on THP-1 cells [2] (setting [3]), 0.004 µM.

As to `COc1ccc(C2CCN([C@H](CO)C3CCN(C(=O)/C=C/c4cc(F)cc(F)c4)CC3)CC2)cc1` [Cpd 180, (2E)-3-(3,5-difluoro-phenyl)-1-(4-{(1S)-2-hydroxy-1-[4-(4-methoxy-phenyl)-piperidin-1-yl]-ethyl}-piperidin-1-yl)-propenone], the IC50 worked out at 0.07 µM against CCR2, 0.09 µM in the assay with THP-1 cells [1] and 0.12 µM in the assay on THP-1 cells [2] (setting [3]).

As to `COc1ccc(C2CCN(C(CO)C3CCN(C(=O)/C=C/c4ccccc4)CC3)CC2)cc1` (stereo not drawn) [Cpd 159, (2E)-1-(4-{2-hydroxy-1-[4-(4-methoxy-phenyl)-piperidin-1-yl]-ethyl}-piperidin-1-yl)-3-phenyl-propenone], the results for the IC50 against CCR2, in the assay with THP-1 cells [1] and with THP-1 cells [2] (setting [3]) were 0.27 µM, 0.86 µM and 2.1 µM, respectively.

In the case of `Cc1cc(NC(=O)N2CCC(C(C(=O)O)N3CCC(c4c[nH]c5ccccc45)CC3)CC2)ccc1F` (stereo not drawn) [Cpd 102, [1-(4-fluoro-3-methyl-phenylcarbamoyl)-piperidin-4-yl]-[4-(1H-indol-3-yl)-piperidin-1-yl]-acetic acid], the IC50 against CCR2 amounted to 0.26 µM; with THP-1 cells [1] it was 0.23 µM; in the assay on THP-1 cells [2] (setting [3]), 0.86 µM.

As for `Cc1cc(C)cc(NC(=O)N2CCC(C(C(=O)O)N3CCC(c4c[nH]c5ccccc45)CC3)CC2)c1` (stereo not drawn) [Cpd 135, [1-(3,5-dimethyl-phenylcarbamoyl)-piperidin-4-yl]-[4-(1H-indol-3-yl)-piperidin-1-yl]-acetic acid], the IC50 at CCR2 was found to be 0.94 µM; in the assay with THP-1 cells [1], 0.77 µM; with THP-1 cells [2] (setting [3]), 7.1 µM.

As for `CC(=O)OCC(C1CCN(C(=O)/C=C/c2cc(F)c(F)c(F)c2)CC1)N1CCC(c2c[nH]c3ccccc23)CC1` (stereo not drawn) [Cpd 236, acetic acid 2-[4-(1H-indol-3-yl)-piperidin-1-yl]-2-{1-[(2E)-3-(3,4,5-trifluoro-phenyl)-acryloyl]-piperidin-4-yl}-ethyl ester], the half-inhibitory concentration (IC50) turned out to be 0.02 µM against CCR2, 0.02 µM in the assay with THP-1 cells [1] and 0.03 µM with THP-1 cells [2] (setting [3]).

Take `CC(=O)NCC(C1CCN(C(=O)/C=C/c2ccc(Cl)c(Cl)c2)CC1)N1CCC(c2c[nH]c3ccccc23)CC1` (stereo not drawn) [Cpd 215]: the IC50 against CCR2 came to 0.09 µM; in the assay on THP-1 cells [1], 0.46 µM; in the assay with THP-1 cells [2] (setting [3]), 0.02 µM.

As to `O=C(/C=C/c1cc(F)cc(F)c1)N1CCC(C(CO)N2CCC(c3c[nH]c4ccccc34)CC2)CC1` (stereo not drawn) [Cpd 116, (2E)-3-(3,5-difluoro-phenyl)-1-(4-{2-hydroxy-1-[4-(1H-indol-3-yl)-piperidin-1-yl]-ethyl}-piperidin-1-yl)-propenone], the IC50 was 0.0006 µM on CCR2, 0.0004 µM in the assay with THP-1 cells [1] and 0.002 µM in the assay on THP-1 cells [2] (setting [3]).

As for `O=C(/C=C/c1cc(F)cc(F)c1)N1CCC(C(CO)N2CCC(c3c[nH]c4ccc(F)cc34)CC2)CC1` (stereo not drawn) [Cpd 171, (2E)-3-(3,5-difluoro-phenyl)-1-(4-{1-[4-(5-fluoro-1H-indol-3-yl)-piperidin-1-yl]-2-hydroxy-ethyl}-piperidin-1-yl)-propenone], the IC50 worked out at 0.0045 µM on CCR2, 0.006 µM with THP-1 cells [1] and 0.007 µM in the assay with THP-1 cells [2] (setting [3]).

Take `O=C(O)C(C1CCN(C(=O)Nc2cccc(F)c2)CC1)N1CCC(c2c[nH]c3ccccc23)CC1` (stereo not drawn) [Cpd 91, [1-(3-fluoro-phenylcarbamoyl)-piperidin-4-yl]-[4-(1H-indol-3-yl)-piperidin-1-yl]-acetic acid]: the results for the IC50 against CCR2, in the assay on THP-1 cells [1] and in the assay with THP-1 cells [2] (setting [3]) were 0.305 µM, 0.27 µM and 0.89 µM, respectively.

For the compound `O=C(/C=C/c1cc(F)cc(F)c1)N1CCC(C(CO)N2CCC(c3ccc(F)cc3)CC2)CC1` (stereo not drawn) [Cpd 192, (2E)-3-(3,5-difluoro-phenyl)-1-(4-{1-[4-(4-fluoro-phenyl)-piperidin-1-yl]-2-hydroxy-ethyl}-piperidin-1-yl)-propenone], the IC50 against CCR2 came to 0.22 µM; with THP-1 cells [1] it was 0.35 µM; with THP-1 cells [2] (setting [3]) it was 0.17 µM.
